# Results taken from patent US20230000808A1, “COMPOSITIONS AND METHODS EXCLUDING OR WITH REDUCED GLUTAMINE FOR THE TREATMENT OF HEMOGLOBINOPATHIES AND THALASSEMIAS” (AXCELLA HEALTH INC., priority 2019, published 2023).
# Tests used:
# IL-6 [1] = assay: LPS-induced IL-6 secretion in primary human monocyte-derived macrophages (ELISA); assay type: cell-based; design: Donor 1 IL-6 Measurements Mean: unit not given here; settings: for Donor 1 IL-6 Measurements Mean / Donor 2 IL-6 Measurements Mean / Donor 3 IL-6 Measurements Mean: LPS, baseline subtracted
# Protocol: (§1) Primary human PMBC derived macrophages were seeded on day 0 at 3.0×10^4 cells per well in 96-well microplates (ThermoFisher) in Dulbecco's Modified Eagle Medium (DMEM) (Gibco) supplemented with penicillin-streptomycin (Hyclone) and 10% heat inactivated fetal bovine serum (HI-FBS) (Atlanta Bio) and incubated overnight at 37° C., 5% CO2. On day 1, cells were washed once with 150 μl per well DPBS (Gibco) and treated with 75 μl of: • a. […] The same medium described above with one amino acid at various concentrations including complete dropout. […] On day 3, the supernatant was collected and immediately frozen in −80° C. freezer. Cells were washed once with 150 μl DPBS and viability was assessed using the WST-8 Cell Proliferation Cytotoxicity Assay (Dojindo). […] Protein levels in supernatant samples were analyzed by ELISA for IL-6 and TNFα using commercially available kits (R&D Systems) according to manufacturer-supplied protocols.
# TNFα = assay: LPS-induced TNF-α secretion in primary human monocyte-derived macrophages (ELISA); assay type: cell-based; settings: for TNF-α Measurements Mean: LPS, baseline subtracted; for effect on LPS-induced TNF-α secretion: Two Way ANOVA Dunnett
# Protocol: as §1
# ICAM-1 = ICAM-1 cell integrated intensity in HLMVEC treated with TNF-α (immunofluorescence); assay type: cell-based, human; settings: for ICAM-1 Cell Integrated Intensity Median: HLMVEC + 0.5 ng/mL TNF-α, 24 h, amino acids 20x HMDB, Nac/Cit/Car 5 mM as bracketed
# Protocol: (§2) Primary Human Lung Microvascular Endothelial Cells (HLMVEC; Lonza) were seeded at 6,000 cells per well in Endothelial Cell Growth Basal Medium-2 (Lonza) supplemented with Fetal Bovine Serum (FBS; Lonza), human EGF (Lonza), human VEGF (Lonza), R3-Insulin-like Growth Factor-1 (Lonza), ascorbic acid (Lonza), hydrocortisone (Lonza), human FGF-beta (Lonza), and gentamicin/amphotericin-b (Lonza) in a 96-well plate (Thermo Fisher). The cells were incubated for 45 minutes at room temperature, then incubated overnight at 37° C./5% CO2.
# (§3) Following overnight incubation, cell were washed once with 150 μL of Dulbecco's phosphate buffered saline (DPBS; Gibco), and then treated with Endothelial Basal Medium MCB-131 (amino acid, glucose, sodium pyruvate, and phenol red free; US Biologicals) containing a defined custom amino acid concentration based on physiological concentrations in blood of patients with SCD (thus recapitulating observed metabolic imbalances such as the depletion of certain essential amino acids including arginine and aspartate and enrichment of certain non-essential amino acids including glutamate and asparagine), dialyzed FBS (Hyclone), human EGF (Lonza), human VEGF (Lonza), R3-Insulin-like Growth Factor-1 (Lonza), ascorbic acid (Lonza), hydrocortisone (Lonza), human FGF-beta (Lonza), and gentamicin/amphotericin-b (Lonza), glucose, 10 mM HEPES, sodium pyruvate, and sodium bicarbonate supplemented with one of the following: • a. PBS (vehicle control), • b. 0.5 ng/mL Tumor Necrosis Factor alpha (TNFα) and PBS, or; • c. 0.5 ng/mL TNF-α and amino acid treatments at 20× mean physiological concentrations in plasma based on values published in the Human Metabolome Database (HMDB) in PBS.
# (§4) After 24 hours of treatment, cells were washed once with 150 μL of DPBS (Gibco), then fixed with 4% paraformaldehyde. Following fixation, cells were stained with anti-ICAM-1 [MEM-111] (mouse IgG2a anti-human; abcam) and anti-VCAM1 [1.4C3] (mouse IgG1, K anti-human; abcam) primary antibodies at 1000×, and 100× dilutions respectively. Cells were then stained with Goat anti-Mouse IgG2a Cross-Adsorbed Secondary Antibody, Alexa Fluor 594 (Invitrogen) and Goat anti-Mouse IgG1 Cross-Adsorbed Secondary Antibody, Alexa Fluor 647 (Invitrogen) secondary antibodies. Nuclei were stained with Hoechst 3342 (Life Technologies).
# (§5) Antibody binding was detected by fluorescence microscopy using a high content imager (Molecular Devices). Images were analyzed using MetaXpress 6 software to determine the integrated intensity per cell for each wavelength corresponding to ICAM-1 or VCAM-1.
# VCAM-1 = VCAM-1 cell integrated intensity in HLMVEC treated with TNF-α (immunofluorescence); assay type: cell-based, human; settings: for VCAM-1 Cell Integrated Intensity Median: HLMVEC + 0.5 ng/mL TNF-α, 24 h, amino acids 20x HMDB, Nac/Cit/Car 5 mM as bracketed
# Protocol: as §2, §3, §4, §5
# IL-6 [2] = assay: Secreted IL-6 in HLMVEC treated with TNF-α (FirePlex); assay type: cell-based, human; settings: HLMVEC + 0.5 ng/mL TNF-α, 24 h; amino acids 20x HMDB, Nac/Cit/Car 5 mM as bracketed
# Protocol: as §2, §3
# Supernatants were analyzed for IL-6 concentrations using a Human Cytokines FirePlex-HT Panel 1 kit (abcam) according to the manufacturer-supplied instructions. Particles were imaged on a high content imager (Molecular Devices), and results were interpolated from a standard curve with FirePlex Analysis Workbench Software (abcam) according manufacturer's recommendations.
# HLMVEC = assay: META-rank score, composite of VCAM1, ICAM1 and IL6 in the HLMVEC model; assay type: cell-based, human; settings: HLMVEC + TNF-α; lower score = more optimal; 20x HMDB / 5 mM
# Protocol: The ability of single amino acids and combinations to simultaneously impact these phenotypes was measured by a META-rank score (Tables 17 and 18). META-rank score is a composite measure that considers the optimal impact on all 3 phenotypes (e.g. decrease VCAM1, ICAM1, and IL6) in the HLMVEC model.
# [3] = Donor 2, Conc. 66 μM (baseline)
# [4] = Donor 2, Conc. 153 μM (baseline)
# [5] = 0.5 ng/mL TNF-α, amino acids at 20× HMDB, 24 hours
structure (smiles),measurement,setting,value
CC[C@H](C)[C@H](N)C(=O)O [Isoleucine],Donor 1 IL-6 Measurements Mean,IL-6 [1]; Conc. 66 μM (baseline),0
same,Donor 1 IL-6 Measurements Mean,IL-6 [1]; Conc. 1328 μM,25.98
same,Donor 1 IL-6 Measurements Mean,IL-6 [1]; Conc. 3320 μM,−15.8843
same,Donor 1 IL-6 Measurements Mean,IL-6 [1]; Conc. 6639 μM,−218.332
same,Donor 2 IL-6 Measurements Mean,IL-6 [1]; [3],0
same,Donor 2 IL-6 Measurements Mean,"IL-6 [1]; Donor 2, Conc. 1328 μM",−2.318
same,Donor 2 IL-6 Measurements Mean,"IL-6 [1]; Donor 2, Conc. 3320 μM",2.305
same,Donor 2 IL-6 Measurements Mean,"IL-6 [1]; Donor 2, Conc. 6639 μM",−1.774
same,Donor 3 IL-6 Measurements Mean,IL-6 [1]; Conc. 66 μM,−6.69
same,Donor 3 IL-6 Measurements Mean,IL-6 [1]; Conc. 1328 μM,−28.9897
same,Donor 3 IL-6 Measurements Mean,IL-6 [1]; Conc. 3320 μM,0
same,Donor 3 IL-6 Measurements Mean,IL-6 [1]; Conc. 6639 μM,−16.3663
same,TNF-α Measurements Mean,"TNFα; Donor 1, Conc. 66 μM (baseline)",0
same,TNF-α Measurements Mean,"TNFα; Donor 1, Conc. 1328 μM",−42.68
same,TNF-α Measurements Mean,"TNFα; Donor 1, Conc. 3320 μM",−96.3
same,TNF-α Measurements Mean,"TNFα; Donor 1, Conc. 6639 μM",−40.95
same,TNF-α Measurements Mean,TNFα; [3],4.74E−15
same,TNF-α Measurements Mean,"TNFα; Donor 2, Conc. 1328 μM",2.919
same,TNF-α Measurements Mean,"TNFα; Donor 2, Conc. 3320 μM",10.26
same,TNF-α Measurements Mean,"TNFα; Donor 2, Conc. 6639 μM",19.26
same,effect on LPS-induced TNF-α secretion,TNFα; Donor 2,increased
same,TNF-α Measurements Mean,"TNFα; Donor 3, Conc. 66 μM (baseline)",−2.4E−15
same,TNF-α Measurements Mean,"TNFα; Donor 3, Conc. 1328 μM",−6.23
same,TNF-α Measurements Mean,"TNFα; Donor 3, Conc. 3320 μM",3.309
same,TNF-α Measurements Mean,"TNFα; Donor 3, Conc. 6639 μM",−1.66
CC(C)C[C@H](N)C(=O)O [Leucine],Donor 1 IL-6 Measurements Mean,IL-6 [1]; Conc. 153 μM (baseline),0
same,Donor 1 IL-6 Measurements Mean,IL-6 [1]; Conc. 3054 μM,244.9743
same,Donor 1 IL-6 Measurements Mean,IL-6 [1]; Conc. 7635 μM,−69.9873
same,Donor 1 IL-6 Measurements Mean,IL-6 [1]; Conc. 15270 μM,84.46
same,Donor 2 IL-6 Measurements Mean,IL-6 [1]; [4],7.11E−15
same,Donor 2 IL-6 Measurements Mean,"IL-6 [1]; Donor 2, Conc. 3054 μM",29.61
same,Donor 2 IL-6 Measurements Mean,"IL-6 [1]; Donor 2, Conc. 7635 μM",30.46
same,Donor 2 IL-6 Measurements Mean,"IL-6 [1]; Donor 2, Conc. 15270 μM",47.6
same,effect on LPS-induced IL-6 secretion,"IL-6 [1]; Donor 2, Two Way ANOVA Dunnett",increased
same,TNF-α Measurements Mean,"TNFα; Donor 1, Conc. 153 μM (baseline)",0
same,TNF-α Measurements Mean,"TNFα; Donor 1, Conc. 3054 μM",42.04
same,TNF-α Measurements Mean,"TNFα; Donor 1, Conc. 7635 μM",−23.04
same,TNF-α Measurements Mean,"TNFα; Donor 1, Conc. 15270 μM",−46.21
same,TNF-α Measurements Mean,TNFα; [4],0
same,TNF-α Measurements Mean,"TNFα; Donor 2, Conc. 3054 μM",31.74
same,TNF-α Measurements Mean,"TNFα; Donor 2, Conc. 7635 μM",41.98
same,TNF-α Measurements Mean,"TNFα; Donor 2, Conc. 15270 μM",46.69
same,effect on LPS-induced TNF-α secretion,TNFα; Donor 2,increased
NCCC[C@H](N)C(=O)O [Orn],ICAM-1 Cell Integrated Intensity Median,ICAM-1,−0.197
same,VCAM-1 Cell Integrated Intensity Median,VCAM-1,−0.196
same,Secreted IL6 Median,IL-6 [2],−0.378
same,Meta-Rank (Table 18),HLMVEC,6.5
same,Metarank (Table 17),HLMVEC,11
NCCCC[C@H](N)C(=O)O [Lys],ICAM-1 Cell Integrated Intensity Median,ICAM-1,0.064
same,VCAM-1 Cell Integrated Intensity Median,VCAM-1,0.025
same,Secreted IL6 Median,IL-6 [2],0.132
same,Meta-Rank (Table 18),HLMVEC,15.5
same,Metarank (Table 17),HLMVEC,29
CC(C)[C@H](N)C(=O)O [Val],ICAM-1 Cell Integrated Intensity Median,ICAM-1,0.167
same,VCAM-1 Cell Integrated Intensity Median,VCAM-1,0.315
same,Secreted IL6 Median,IL-6 [2],−0.224
same,Meta-Rank (Table 18),HLMVEC,25.5
same,Metarank (Table 17),HLMVEC,18
"NCC(=O)O [Gly, glycine]",TNFα induced ICAM-1 expression levels in HLMVEC,ICAM-1; [5],reduced levels of ICAM-1 expression to a lesser extent
same,ICAM-1 Cell Integrated Intensity Median,ICAM-1,−0.261
same,VCAM-1 expression in HLMVEC,VCAM-1; [5],greatly reduced
same,VCAM-1 Cell Integrated Intensity Median,VCAM-1,−0.298
same,Secreted IL6 Median,IL-6 [2],−0.010
same,Meta-Rank (Table 18),HLMVEC,3
same,Metarank (Table 17),HLMVEC,26
